Data published in EP2758401B1 (Bayer Intellectual Property GmbH, priority 2011, dated 2013).

What was measured:
[1] = molecular target: T1, MKNK1 (Homo sapiens, UniProt Q9BUB5, T385D); experiment: MKNK1 kinase assay (TR-FRET); format: biochemical; conditions: ATP final conc. 10 µM; 15 min pre-incubation; reaction time 45 min at 22°C
T1 construct: GST (N); purchased Carna Biosciences 02-145; host or cells: insect cells (baculovirus expression system)
Description: MKNK1-inhibitory activity of compounds of the present invention was quantified employing the MKNK1 TR-FRET assay as described in the following paragraphs.
As substrate for the kinase reaction the biotinylated peptide biotin-Ahx-[…] (C-terminus in amide form) was used which can be purchased e.g. form the company Biosyntan (Berlin-Buch, Germany).
For the assay 50 nL of a 100fold concentrated solution of the test compound in DMSO was pipetted into a black low volume 384well microtiter plate (Greiner Bio-One, Frickenhausen, Germany), 2 µL of a solution of MKNK1 in aqueous assay buffer [50 mM HEPES pH 7.5, 5 mM magnesium chloride, 1.0 mM dithiothreitol, 0.005% (v/v) Nonidet-P40 (Sigma)] was added and the mixture was incubated for 15 min at 22°C to allow pre-binding of the test compounds to the enzyme before the start of the kinase reaction. Then the kinase reaction was started by the addition of 3 µL of a solution of adenosine-tri-phosphate (ATP, 16.7 µM => final conc. in the 5 µL assay volume is 10 µM) and substrate (0.1 µM => final conc. in the 5 µL assay volume is 0.06 µM) in assay buffer and the resulting mixture was incubated for a reaction time of 45 min at 22°C.
The resulting mixture was incubated for 1 h at 22°C to allow the formation of complex between the phosphorylated biotinylated peptide and the detection reagents. Subsequently the amount of phosphorylated substrate was evaluated by measurement of the resonance energy transfer from the Eu-chelate to the streptavidine-XL. Therefore, the fluorescence emissions at 620 nm and 665 nm after excitation at 350 nm were measured in a TR-FRET reader, e.g. a Rubystar (BMG Labtechnologies, Offenburg, Germany) or a Viewlux (Perkin-Elmer). The ratio of the emissions at 665 nm and at […] was taken as the measure for the amount of phosphorylated substrate. The data were normalised (enzyme reaction without inhibitor = 0 % inhibition, all other assay components but no enzyme = 100 % inhibition). […] Table 1: MKNK1 IC50s

[2] = molecular target: T1, MKNK1; experiment: MKNK1 kinase high ATP assay (TR-FRET); format: biochemical; conditions: ATP final conc. 2 mM; 15 min pre-incubation; reaction time 30 min at 22°C
Description: MKNK1-inhibitory activity at high ATP of compounds of the present invention after their preincubation with MKNK1 was quantified employing the TR-FRET-based MKNK1 high ATP assay as described in the following paragraphs.
As substrate for the kinase reaction the biotinylated peptide biotin-Ahx-[…] (C-terminus in amide form) was used, which can be purchased e.g. from the company Biosyntan (Berlin-Buch, Germany).
For the assay 50 nL of a 100fold concentrated solution of the test compound in DMSO was pipetted into a black low volume 384well microtiter plate (Greiner Bio-One, Frickenhausen, Germany), 2 µL of a solution of MKNK1 in aqueous assay buffer [50 mM HEPES pH 7.5, 5 mM magnesium chloride, 1.0 mM dithiothreitol, 0.005% (v/v) Nonidet-P40 (Sigma)] was added and the mixture was incubated for 15 min at 22°C to allow pre-binding of the test compounds to the enzyme before the start of the kinase reaction. Then the kinase reaction was started by the addition of 3 µL of a solution of adenosine-tri-phosphate (ATP, 3.3 mM => final conc. in the 5 µL assay volume is 2 mM) and substrate (0.1 µM => final conc. in the 5 µL assay volume is 0.06 µM) in assay buffer and the resulting mixture was incubated for a reaction time of 30 min at 22°C. The concentration of MKNK1 was adjusted depending of the activity of the enzyme lot and was chosen appropriate to have the assay in the linear range, typical concentrations were in the range of 0.003 µg/mL. The reaction was stopped by the addition of 5 µL of a solution of TR-FRET detection reagents (5 nM streptavidine-XL665 [Cisbio Bioassays, Codolet, France] and 1 nM anti-ribosomal protein S6 (pSer236)-antibody from Invitrogen [# 44921G] and 1 nM LANCE EU-W1024 labeled ProteinG [Perkin-Elmer, product no. AD0071]) in an aqueous EDTA-solution (100 mM EDTA, 0.1 % (w/v) bovine serum albumin in 50 mM HEPES pH 7.5).
The resulting mixture was incubated for 1 h at 22°C to allow the formation of complex between the phosphorylated biotinylated peptide and the detection reagents. Subsequently the amount of phosphorylated substrate was evaluated by measurement of the resonance energy transfer from the Eu-chelate to the streptavidine-XL. Therefore, the fluorescence emissions at 620 nm and 665 nm after excitation at 350 nm were measured in a TR-FRET reader, e.g. a Rubystar (BMG Labtechnologies, Offenburg, Germany) or a Viewlux (Perkin-Elmer). The ratio of the emissions at 665 nm and at […] was taken as the measure for the amount of phosphorylated substrate. The data were normalised (enzyme reaction without inhibitor = 0 % inhibition, all other assay components but no enzyme = 100 % inhibition).

T1 sequence (Q9BUB5 1-424 isoform Q9BUB5-2 T344D): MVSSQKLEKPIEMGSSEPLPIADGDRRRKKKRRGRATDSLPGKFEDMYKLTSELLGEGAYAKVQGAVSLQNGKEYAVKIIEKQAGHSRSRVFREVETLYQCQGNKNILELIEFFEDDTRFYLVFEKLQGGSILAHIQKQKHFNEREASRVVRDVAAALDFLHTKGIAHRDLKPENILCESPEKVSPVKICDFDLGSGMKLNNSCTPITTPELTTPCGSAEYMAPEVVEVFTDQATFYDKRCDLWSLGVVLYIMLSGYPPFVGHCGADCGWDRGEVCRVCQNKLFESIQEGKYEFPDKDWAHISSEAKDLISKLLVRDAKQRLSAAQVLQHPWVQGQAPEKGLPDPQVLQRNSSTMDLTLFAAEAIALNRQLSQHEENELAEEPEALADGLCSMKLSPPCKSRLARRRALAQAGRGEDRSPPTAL

Row | Compound | IC50 [1] | IC50 [2]
1 | 1-{[3-(1-Benzofuran-2-yl)imidazo[1,2-b]pyridazin-6-yl]oxy}-2-methylpropan-2-amine [Example 29] | 0.017 µM | 0.059 µM
2 | COc1cccc2oc(-c3cnc4ccc(OCCCCN)nn34)cc12 [Example 1, 4-{[3-(4-Methoxy-1-benzofuran-2-yl)imidazo[1,2-b]pyridazin-6-yl]oxy}butan-1-amine] | 0.003 µM | 0.005 µM
3 | N[C@H]1C[C@H](Oc2ccc3ncc(-c4cc5ccccc5o4)n3n2)C1 [Example 2, trans-3-{[3-(1-Benzofuran-2-yl)imidazo[1,2-b]pyridazin-6-yl]oxy}cyclobutan-amine] | 0.005 µM | 0.006 µM
4 | N[C@H]1C[C@@H](Oc2ccc3ncc(-c4cc5ccccc5o4)n3n2)C1 [Example 3, cis-3-{[3-(1-Benzofuran-2-yl)imidazo[1,2-b]pyridazin-6-yl]oxy}cyclobutan-amine] | 0.004 µM | 0.017 µM
5 | COc1cccc2oc(-c3cnc4ccc(OCCCN)nn34)cc12 [Example 4, 3-{[3-(4-Methoxy-1-benzofuran-2-yl)imidazo[1,2-b]pyridazin-6-yl]oxy}propan-1-amine] | 0.005 µM | 0.015 µM
6 | COc1cccc2oc(-c3cnc4ccc(OCCN)nn34)cc12 [Example 5, 2-{[3-(4-Methoxy-1-benzofuran-2-yl)imidazo[1,2-b]pyridazin-6-yl]oxy}ethan-amine] | 0.006 µM | 0.018 µM
7 | COc1ccc2oc(-c3cnc4ccc(OCCN)nn34)cc2c1 [Example 6, 2-{[3-(5-Methoxy-1-benzofuran-2-yl)imidazo[1,2-b]pyridazin-6-yl]oxy}ethan-amine] | 0.006 µM | 0.013 µM
8 | C[C@H](N)COc1ccc2ncc(-c3cc4ccccc4o3)n2n1 [Example 7, (2S)-1-{[3-(1-Benzofuran-2-yl)imidazo[1,2-b]pyridazin-6-yl]oxy}propan-2-amine] | 0.007 µM | 0.018 µM
9 | NCCCCOc1ccc2ncc(-c3cc4ccccc4o3)n2n1 [Example 8, 4-{[3-(1-Benzofuran-2-yl)imidazo[1,2-b]pyridazin-6-yl]oxy}butan-1-amine] | 0.007 µM | 0.017 µM
10 | COc1ccc2oc(-c3cnc4ccc(OCCCN)nn34)cc2c1 [Example 9, 3-{[3-(5-Methoxy-1-benzofuran-2-yl)imidazo[1,2-b]pyridazin-6-yl]oxy}propan-1-amine] | 0.007 µM | 0.022 µM
11 | NCCOCCOc1ccc2ncc(-c3cc4ccccc4o3)n2n1 [Example 21, 2-(2-{[3-(1-Benzofuran-2-yl)imidazo[1,2-b]pyridazin-6-yl]oxy}ethoxy)ethan-amine] |  | 0.014 µM
12 | N[C@@H]1CCCC[C@H]1Oc1ccc2ncc(-c3cc4ccccc4o3)n2n1 [Example 23, (1R,2R)-2-{[3-(1-Benzofuran-2-yl)imidazo[1,2-b]pyridazin-6-yl]oxy}cyclohexan-amine] |  | 0.018 µM
13 | NC1(COc2ccc3ncc(-c4cc5ccccc5o4)n3n2)CCC1 [Example 27, 1-({[3-(1-Benzofuran-2-yl)imidazo[1,2-b]pyridazin-6-yl]oxy}methyl)cyclobutan-amine] |  | 0.029 µM
14 | C=CCCC(CN)Oc1ccc2ncc(-c3cc4ccccc4o3)n2n1 (centres unmarked) [Example 28, 2-{[3-(1-Benzofuran-2-yl)imidazo[1,2-b]pyridazin-6-yl]oxy}hex-5-en-1-amine] |  | 0.045 µM
15 | NCC(CN1CCOCC1)Oc1ccc2ncc(-c3cc4ccccc4o3)n2n1 (centres unmarked) [Example 31, 2-{[3-(1-Benzofuran-2-yl)imidazo[1,2-b]pyridazin-6-yl]oxy}-3-(morpholin-4-yl)-propan-1-amine] |  | 0.078 µM
16 | NC(COc1ccc2ncc(-c3cc4ccccc4o3)n2n1)C1CCOCC1 (centres unmarked) [Example 32, 2-{[3-(1-Benzofuran-2-yl)imidazo[1,2-b]pyridazin-6-yl]oxy}-1-(tetrahydro-2H-pyran-4-yl)ethanamine] |  | 0.079 µM
17 | NCC(Cc1ccc(F)cc1)Oc1ccc2ncc(-c3cc4ccccc4o3)n2n1 (centres unmarked) [Example 53, 2-{[3-(1-Benzofuran-2-yl)imidazo[1,2-b]pyridazin-6-yl]oxy}-3-(4-fluorophenyl)-propan-1-amine] |  | 0.046 µM
18 | NCC(Cc1ccncc1)Oc1ccc2ncc(-c3cc4ccccc4o3)n2n1 (centres unmarked) [Example 54, 2-{[3-(1-Benzofuran-2-yl)imidazo[1,2-b]pyridazin-6-yl]oxy}-3-(pyridin-4-yl)-propan-1-amine] |  | 0.019 µM
19 | NC[C@H](Oc1ccc2ncc(-c3cc4ccccc4o3)n2n1)c1cccnc1 [Example 55, (2R)-2-{[3-(1-benzofuran-2-yl)imidazo[1,2-b]pyridazin-6-yl]oxy}-2-(pyridin-3-yl)ethanamine] | 0.016 µM | 
20 | NCC(Oc1ccc2ncc(-c3cc4ccccc4o3)n2n1)c1ccc(F)cc1 (centres unmarked) [Example 56, 2-{[3-(1-benzofuran-2-yl)-imidazo-[1,2-b]-pyridazin-6-yl]oxy}-2-(4-fluorophenyl)-ethanamine] | 0.04 µM | 
21 | NCC(Oc1ccc2ncc(-c3cc4ccccc4o3)n2n1)c1ccccn1 (centres unmarked) [Example 57, 2-{[3-(1-benzofuran-2-yl)-imidazo-[1,2-b]-pyridazin-6-yl]oxy}-2-(pyridin-2-yl)-ethanamine] | 0.094 µM | 
22 | CC(C)Oc1cccc(C(CN)Oc2ccc3ncc(-c4cc5ccccc5o4)n3n2)c1 (centres unmarked) [Example 58, 2-{[3-(1-benzofuran-2-yl)-imidazo-[1,2-b]-pyridazin-6-yl]oxy}-2-(3-iso-propoxyphenyl)-ethanamine] | 0.02 µM | 
23 | NCC(Oc1ccc2ncc(-c3cc4ccccc4o3)n2n1)c1cccc(C(F)(F)F)c1 (centres unmarked) [Example 59, 2-{[3-(1-benzofuran-2-yl)-imidazo-[1,2-b]-pyridazin-6-yl]oxy}-2-[3-(trifluoromethyl)-phenyl]-ethanamine] | 0.037 µM | 
24 | NCC(Oc1ccc2ncc(-c3cc4ccccc4o3)n2n1)c1ccc(F)cc1F (centres unmarked) [Example 60, 2-{[3-(1-benzofuran-2-yl)-imidazo-[1,2-b]-pyridazin-6-yl]oxy}-2-(2,4-difluorophenyl)-ethanamine] | 0.039 µM | 
25 | N[C@H](COc1ccc2ncc(-c3cc4ccccc4o3)n2n1)c1ccc(F)cc1 [Example 61, (1S)-2-{[3-(1-benzofuran-2-yl)imidazo[1,2-b]pyridazin-6-yl]oxy}-1-(4-fluorophenyl)ethanamine] | 0.029 µM | 
26 | N[C@H](COc1ccc2ncc(-c3cc4ccccc4o3)n2n1)c1ccc(Cl)cc1 [Example 62, (1S)-2-{[3-(1-benzofuran-2-yl)imidazo[1,2-b]pyridazin-6-yl]oxy}-1-(4-chlorophenyl)ethanamine] | 0.031 µM | 
27 | NC(COc1ccc2ncc(-c3cc4ccccc4o3)n2n1)c1cccnc1 (centres unmarked) [Example 63, 2-{[3-(1-benzofuran-2-yl)imidazo[1,2-b]pyridazin-6-yl]oxy}-1-(pyridin-3-yl)ethanamine] | 0.054 µM | 
28 | NCCC(Oc1ccc2ncc(-c3cc4ccccc4o3)n2n1)c1ccc(F)cc1 (centres unmarked) [Example 64] | 0.057 µM | 
